# Reference: patent US8377470B2, “Non-gelatin soft capsule system” (R.P. Scherer Technologies, LLC, priority 2004, dated 2013)
# Experiment: Film stability with concentrated salt formulations, starch/gelling carrageenan film
# Type: physicochemical
# Conditions: concentrated suspension/solution in film depression, open exposure
# Procedure: (§1) The films were formed and spread over a holding device such that small depressions could be formed in the surface of the film. A depression was formed and subsequently filled with the concentrated suspension of the salt formulation. Simultaneously, two acidic solutions were tested by the same protocol. […] This is well-known in the art to be an extremely aggressive mode of stability testing, resulting in acceleration in the interaction between shell and fill of over 260 times normal rates.
row,Compound,"Test Result After 24 Hours at 40° C.-75% RH, Starch/Gelling Carrageenan film"
1,CC(=O)[O-].[K+] [Potassium acetate],Pass
2,O=C([O-])CC(O)(CC(=O)[O-])C(=O)[O-].[K+].[K+].[K+] [Potassium citrate],Pass
3,O=P([O-])([O-])[O-].[Na+].[Na+].[Na+] [Sodium PO4-(tribasic)],Pass
4,O=C(O)C(O)C(O)C(=O)O (centres unmarked) [Tartaric acid],Fail
5,CC(=O)O.N [Ammonium acetate],Pass
6,O=P([O-])([O-])O.[K+].[K+] [Potassium PO4-(dibasic)],Pass
7,O=C(O)CC(O)(CC(=O)O)C(=O)O [Citric acid],Fail
8,O=C([O-])c1ccccc1C(=O)O.[K+] [Potassium Hydrogen Phthalate],Pass

# Experiment: not given
# Conditions: sodium or potassium hydroxide required to solubilize acetaminophen at greater than about 27% by weight; cited from earlier work
row,Compound,pH of the PEG solution
1,"CC(=O)Nc1ccc(O)cc1 [acetaminophen, N-acetyl-p-aminophenol]",greater than 12

# Experiment: Film stability with concentrated salt formulations, gelatin film
# Type: physicochemical
# Conditions: concentrated suspension/solution in film depression, open exposure
# Procedure: as §1
row,Compound,"Test Result After 24 Hours at 40° C.-75% RH, Gelatin film"
1,CC(=O)[O-].[K+] [Potassium acetate],Fail
2,O=C([O-])CC(O)(CC(=O)[O-])C(=O)[O-].[K+].[K+].[K+] [Potassium citrate],Fail
3,O=P([O-])([O-])[O-].[Na+].[Na+].[Na+] [Sodium PO4-(tribasic)],Fail
4,O=C(O)C(O)C(O)C(=O)O (centres unmarked) [Tartaric acid],Fail
5,CC(=O)O.N [Ammonium acetate],Fail
6,O=P([O-])([O-])O.[K+].[K+] [Potassium PO4-(dibasic)],Fail
7,O=C(O)CC(O)(CC(=O)O)C(=O)O [Citric acid],Fail
8,O=C([O-])c1ccccc1C(=O)O.[K+] [Potassium Hydrogen Phthalate],Fail
